Experimental data as given in patent publication US20210317140A1, “Heterocyclic Compounds and Methods of Use” (MEDIVATION TECHNOLOGIES, INC, priority 2013, published 2021).

How the values were obtained:
[1] = target: T1, PI3Kα (Homo sapiens, UniProt P42336); experiment: PI3Kα isoform profiling (PI3Kδ protocol); type: biochemical; settings: 10 dose IC50
T1 construct: purchased Reaction Biology Corporation
Excerpt: PI3Kδ assay: The PIP3 product is detected by displacement of biotin-PIP3 from an energy transfer complex consisting of Europium labeled anti-GST monoclonal antibody, a GST-tagged pleckstrin homology (PH) domain, biotinylated PIP3 and Streptavidin-Allophycocyanin (APC). Excitation of Europium in the complex results in an energy transfer to the APC and a fluorescent emission at 665 nm. The PIP3 product formed by PI 3-Kinase(h) activity displaces biotin-PIP3 from the complex resulting in a loss of energy transfer and thus a decrease in signal. This is a 3-step reaction: First, the kinase reaction with PIP2 substrate is carried out in the presence of ATP (10 μM), and the reaction is quenched with stop Solution, and then finally detect by adding Detection Mixture followed by incubation (10 min). Reaction procedure: 1) Prepare substrate in freshly prepared Reaction Buffer. 2) Deliver kinase into the substrate solution and gently mix. 3) Deliver compounds in 100% DMSO (1 μM) into the kinase reaction mixture by Acoustic technology (Echo550; nanoliter range), incubate for 10 min at RT. 4) Deliver ATP into the reaction mixture to initiate the reaction. 5) Incubate for 30 min at 30° C. 6) Quench the reaction with Stop Solution. 7) Add Detection Mixture, and incubate for overnight. 8) Measure HTRF: Ex=320 nm, ratio of Em=615 nm and Em=665 nm. The emission ratio is converted into μM PIP3 production based on PIP3 standard curves. The nonlinear regression to obtain the standard curve and IC50 values are performed using Graphpad Prism software. Assay Buffer: HEPES 50 mM (pH7.0), NaN3 0.02%, BSA 0.01%, Orthovanadate 0.1 mM, 1% DMSO. Detection buffer: HEPES 10 mM (pH7.0), BSA 0.02%, KF 0.16 M, EDTA 4 mM. Substrate: 10 μM PIP2 substrate (PI(4,5)P2).
Compounds of the invention were profiled in a 10 dose IC50 panel against PI3Kα, PI3Kβ, and PI3Kγ kinases, provided by Reaction Biology Corporation, applied to the PI3Kδ protocol provided in Example B1.

[2] = target: T2, BTK (Homo sapiens, UniProt Q06187); experiment: BTK kinase assay (HotSpot, 33P ATP); type: biochemical; settings: for BTK @ 0.1 μM (% Inh): 0.1 μM compound; for BTK @ 0.1 μM (% Inh) / BTK @ 1 μM (% Inh) / BTK @ 0.01 μM (% Inh): 10 μM ATP; for BTK @ 1 μM (% Inh): 1 μM compound; for IC50: 10 dose IC50, 10 μM ATP; for BTK @ 0.01 μM (% Inh): 0.01 μM compound
T2 construct: purchased Reaction Biology Corporation
Procedure, shortened: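 In 20 mM Hepes (pH 7.5) with 10 mM MgCl2, 1 mM EGTA, 0.1 mM Na3VO4, 2 mM DTT, 0.02% Brij35, 0.02 mg/mL BSA and 1% DMSO, kinase and substrate were exposed to ten compound doses for 15–20 min.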

[3] = system: CD69+B220+ cells; experiment: B cell activation assay (IgD-stimulated splenocytes, CD69+B220+ cells by FACS); type: cell-based; settings: IgD 3 μg/mL, 4 h; for CD69 @ 100 nM (% Inh): 100 nM compound; for IC50: Splenocyte
Procedure, shortened: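 Read-out is percent CD69+ among live B220+ cells by FACS after 4 h stimulation with 3 μg/mL IgD at 37 °C. Before stimulation, splenocytes from one female mouse (10^6 cells/mL) received 100 nM compound for 30 min.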

T1 sequence (P42336 whole entry, canonical isoform): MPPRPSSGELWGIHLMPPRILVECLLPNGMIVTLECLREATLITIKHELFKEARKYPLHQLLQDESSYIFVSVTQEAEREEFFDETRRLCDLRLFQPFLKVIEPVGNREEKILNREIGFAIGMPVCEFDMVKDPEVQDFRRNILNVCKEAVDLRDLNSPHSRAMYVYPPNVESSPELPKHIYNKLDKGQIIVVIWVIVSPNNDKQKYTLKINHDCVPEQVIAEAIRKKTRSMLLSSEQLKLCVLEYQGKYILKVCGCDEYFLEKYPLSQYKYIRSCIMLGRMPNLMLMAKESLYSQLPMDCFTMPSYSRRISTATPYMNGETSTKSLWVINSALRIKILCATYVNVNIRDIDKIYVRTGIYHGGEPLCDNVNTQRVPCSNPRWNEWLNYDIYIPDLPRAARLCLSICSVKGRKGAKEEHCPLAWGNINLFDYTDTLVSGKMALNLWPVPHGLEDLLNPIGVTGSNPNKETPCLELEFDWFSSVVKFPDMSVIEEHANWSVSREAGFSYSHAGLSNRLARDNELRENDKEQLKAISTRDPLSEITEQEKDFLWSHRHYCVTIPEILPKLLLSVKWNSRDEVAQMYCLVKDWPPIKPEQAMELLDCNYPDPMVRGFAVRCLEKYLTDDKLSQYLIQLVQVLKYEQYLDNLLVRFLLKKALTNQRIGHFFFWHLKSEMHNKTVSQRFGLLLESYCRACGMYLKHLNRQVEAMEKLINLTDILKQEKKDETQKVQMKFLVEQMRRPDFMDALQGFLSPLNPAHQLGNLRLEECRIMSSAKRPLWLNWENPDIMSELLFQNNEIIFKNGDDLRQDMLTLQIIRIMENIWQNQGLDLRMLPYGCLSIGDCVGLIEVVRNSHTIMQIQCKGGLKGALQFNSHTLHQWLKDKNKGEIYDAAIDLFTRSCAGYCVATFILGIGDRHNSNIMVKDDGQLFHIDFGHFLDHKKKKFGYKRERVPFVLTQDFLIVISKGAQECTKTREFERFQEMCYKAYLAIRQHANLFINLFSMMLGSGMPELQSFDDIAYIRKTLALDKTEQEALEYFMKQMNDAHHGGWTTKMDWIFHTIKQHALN
T1 sequence (P27986 whole entry partner, canonical isoform): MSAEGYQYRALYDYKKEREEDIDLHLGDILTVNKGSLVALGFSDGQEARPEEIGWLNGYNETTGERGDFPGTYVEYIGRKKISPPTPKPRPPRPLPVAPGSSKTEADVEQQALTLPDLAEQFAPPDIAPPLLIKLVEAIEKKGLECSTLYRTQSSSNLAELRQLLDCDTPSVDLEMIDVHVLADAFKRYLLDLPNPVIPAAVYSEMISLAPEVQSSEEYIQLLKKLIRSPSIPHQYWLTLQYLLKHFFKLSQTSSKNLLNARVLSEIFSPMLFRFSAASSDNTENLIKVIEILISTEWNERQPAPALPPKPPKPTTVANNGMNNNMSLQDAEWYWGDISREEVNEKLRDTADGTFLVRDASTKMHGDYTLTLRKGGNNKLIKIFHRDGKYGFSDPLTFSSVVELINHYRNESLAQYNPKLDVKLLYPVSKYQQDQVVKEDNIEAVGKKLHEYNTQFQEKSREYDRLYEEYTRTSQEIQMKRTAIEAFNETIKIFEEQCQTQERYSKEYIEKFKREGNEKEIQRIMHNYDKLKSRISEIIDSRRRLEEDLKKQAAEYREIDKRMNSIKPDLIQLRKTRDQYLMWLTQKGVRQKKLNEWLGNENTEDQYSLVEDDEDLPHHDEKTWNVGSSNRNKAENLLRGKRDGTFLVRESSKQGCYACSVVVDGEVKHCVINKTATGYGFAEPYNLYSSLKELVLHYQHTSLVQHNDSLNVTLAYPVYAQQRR
T2 sequence (Q06187 whole entry): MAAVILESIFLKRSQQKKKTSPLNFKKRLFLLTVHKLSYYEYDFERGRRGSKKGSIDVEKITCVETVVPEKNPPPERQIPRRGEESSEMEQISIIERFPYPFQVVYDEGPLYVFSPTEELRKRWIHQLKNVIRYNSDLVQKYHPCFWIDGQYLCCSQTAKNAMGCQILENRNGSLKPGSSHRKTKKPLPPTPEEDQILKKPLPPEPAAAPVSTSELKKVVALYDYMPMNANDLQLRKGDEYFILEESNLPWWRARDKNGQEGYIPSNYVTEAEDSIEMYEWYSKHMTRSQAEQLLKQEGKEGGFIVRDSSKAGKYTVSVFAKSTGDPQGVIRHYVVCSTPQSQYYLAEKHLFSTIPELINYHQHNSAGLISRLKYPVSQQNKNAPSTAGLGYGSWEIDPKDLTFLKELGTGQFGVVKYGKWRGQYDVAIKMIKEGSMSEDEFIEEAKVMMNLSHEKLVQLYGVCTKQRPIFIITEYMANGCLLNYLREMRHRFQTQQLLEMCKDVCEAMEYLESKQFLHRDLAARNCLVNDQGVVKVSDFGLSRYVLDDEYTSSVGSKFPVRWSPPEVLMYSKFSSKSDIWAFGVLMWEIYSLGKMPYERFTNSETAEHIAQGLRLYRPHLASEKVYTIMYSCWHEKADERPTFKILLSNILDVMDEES

Structure (SMILES)	IC50 [1] [µM]	BTK @ 0.1 μM (% Inh) [2] [% Inh]	BTK @ 1 μM (% Inh) [2] [% Inh]	IC50 [2] [µM]	CD69 @ 100 nM (% Inh) ([3]; mouse splenocytes)	IC50 ([3]; Mus musculus) [µM]	BTK @ 0.01 μM (% Inh) [2] [% Inh]	IC50 ([3]; mouse splenocytes) [µM]
Nc1ncnc2c1c(-c1cc(F)c3c(c1)NCCO3)nn2C1Cc2ccccc2C1 [Compound No. 84, 1-(2,3-dihydro-1H-inden-2-yl)-3-(8-fluoro-3,4-dihydro-2H-1,4-benzoxazin-6-yl)-1H-pyrazolo[3,4-d]pyrimidin-4-amine]	0.638	51.83	90.69	0.104	47.61 ± 24.72 (n = 15) % Inh	0.153	–	–
Nc1ncnc2c1c(-c1ccc(Cl)c(O)c1)cn2C1Cc2ccccc2C1 [Compound No. 93, 5-[4-amino-7-(2,3-dihydro-1H-inden-2-yl)-7H-pyrrolo[2,3-d]pyrimidin-5-yl]-2-chlorophenol]	0.0509	96.32	–	0.0008	−19.68 ± 39.78 (n = 5) % Inh	–	77.86	–
Nc1ncnc2c1c(-c1ccc(Cl)c(O)c1F)nn2C1Cc2ccccc2C1 [Compound No. 100, 3-[4-amino-1-(2,3-dihydro-1H-inden-2-yl)-1H-pyrazolo[3,4-d]pyrimidin-3-yl]-6-chloro-2-fluorophenol]	0.0701	52.22	–	0.078	27.39 ± 22.07 (n = 5) % Inh	–	17.5	–
Nc1ncnc2c1c(-c1cc(O)c(F)c(F)c1)cn2C1Cc2ccccc2C1 [Compound No. 101, 5-[4-amino-7-(2,3-dihydro-1H-inden-2-yl)-7H-pyrrolo[2,3-d]pyrimidin-5-yl]-2,3-difluorophenol]	0.12	94.7	–	0.00247	−12.35 ± 33.92 (n = 5) % Inh	–	78.34	–
Nc1ncnc2c1c(-c1cc(O)c(F)c(C(F)(F)F)c1)nn2C1Cc2ccccc2C1 [Compound No. 102, 5-[4-amino-1-(2,3-dihydro-1H-inden-2-yl)-1H-pyrazolo[3,4-d]pyrimidin-3-yl]-2-fluoro-3-(trifluoromethyl)phenol]	0.0211	0.67	9.91	> 1	81.06 ± 20.76 (n = 7) % Inh	–	–	0.191 ± 0.12
Nc1ncnc2c1c(-c1cc(O)c(Cl)c(Cl)c1)cn2C1Cc2ccccc2C1 [Compound No. 107, 5-[4-amino-7-(2,3-dihydro-1H-inden-2-yl)-7H-pyrrolo[2,3-d]pyrimidin-5-yl]-2,3-dichlorophenol]	0.0565	–	–	0.0087	−0.20 ± 16.10 (n = 3) % Inh	–	–	–
Nc1ncnc2c1c(-c1ccc(Br)c(O)c1)nn2C1Cc2ccccc2C1 [compound 2, 5-(4-amino-1-(2,3-dihydro-1H-inden-2-yl)-1H-pyrazolo[3,4-d]pyrimidin-3-yl)-2-bromophenol]	0.0173	78.45	–	–	22.52 ± 18.41 (n = 5) % Inh	–	–	–
Nc1ncnc2c1c(-c1cc(O)cc(F)c1)nn2C1Cc2ccccc2C1 [compound 3, 3-(4-amino-1-(2,3-dihydro-1H-inden-2-yl)-1H-pyrazolo[3,4-d]pyrimidin-3-yl)-5-fluorophenol]	0.0201	–	–	0.0673	77.66 ± 22.65 (n = 6) % Inh	0.183 ± 0.172	–	–
Nc1ncnc2c1c(-c1cc(O)cc(F)c1)nn2C1Cc2ccc(F)cc2C1 (stereo not drawn) [compound 57, 3-[4-amino-1-(5-fluoro-2,3-dihydro-1H-inden-2-yl)-1H-pyrazolo[3,4-d]pyrimidin-3-yl]-5-fluorophenol]	0.0711	63.18	93.26	0.134	64.26 ± 21.20 (n = 6) % Inh	–	–	0.117 ± 0.0836
Nc1ncnc2c1c(-c1cc(O)c(F)c(Cl)c1)cn2C1Cc2ccccc2C1 [compound 110, 5-[4-amino-7-(2,3-dihydro-1H-inden-2-yl)-7H-pyrrolo[2,3-d]pyrimidin-5-yl]-3-chloro-2-fluorophenol]	0.0835	91.79	–	0.0025	−11.51 ± 15.89 (n = 3) % Inh	–	55.15	–
